In one assay the target is RET G810R (Homo sapiens (Human), UniProt P07949, G810R). As to the kind of experiment: HTRF kinase activity test, RET G810R. Type of assay: biochemical. Particulars: for IC50: HTRF KinEASE-TK; for inhibitory activity on RET G810R compared with cabozantinib and selpercatinib (LOXO-292): comparison in words. For orientation: Time-resolved FRET reads energy transfer from a long-lived donor to a nearby acceptor.

In the next assay the test system is TT Cell. Briefly: TT cell activity test (CelltiterGlo, 72 h). Type of assay: cell-based, human. To be noted: for IC50: Homo sapiens, TT cell line, 72 h, CTG; for inhibitory activity on TT cells compared with cabozantinib: comparison in words. As to the method:
2.3 Data Processing % Inhibition (inhibition rate)=100*(HC−test compound well reading)/(HC−LC) • High control (HC, reading control without inhibition): 0.5% DMSO • Low control (LC, control with compound inhibition): 1 μM CEP-32496
The IC50 values were calculated using GraphPad Prism 6 software. Y=Bottom+(Top−Bottom)/(1+10^((Log IC50−X)*HillSlope)); • X: log of cpd concentration; • Y: % inhibition; • Top and Bottom: plateaus in same units as Y; • Log IC50: same log units as X; and • HillSlope: slope factor The Cell Results are Shown in Table 5: […]
(In general: ATP-based viability assays read luminescence as a measure of living cells.)

SMILES strings stand for the structures.

Chain of RET G810R (P07949 29-1114 G810R): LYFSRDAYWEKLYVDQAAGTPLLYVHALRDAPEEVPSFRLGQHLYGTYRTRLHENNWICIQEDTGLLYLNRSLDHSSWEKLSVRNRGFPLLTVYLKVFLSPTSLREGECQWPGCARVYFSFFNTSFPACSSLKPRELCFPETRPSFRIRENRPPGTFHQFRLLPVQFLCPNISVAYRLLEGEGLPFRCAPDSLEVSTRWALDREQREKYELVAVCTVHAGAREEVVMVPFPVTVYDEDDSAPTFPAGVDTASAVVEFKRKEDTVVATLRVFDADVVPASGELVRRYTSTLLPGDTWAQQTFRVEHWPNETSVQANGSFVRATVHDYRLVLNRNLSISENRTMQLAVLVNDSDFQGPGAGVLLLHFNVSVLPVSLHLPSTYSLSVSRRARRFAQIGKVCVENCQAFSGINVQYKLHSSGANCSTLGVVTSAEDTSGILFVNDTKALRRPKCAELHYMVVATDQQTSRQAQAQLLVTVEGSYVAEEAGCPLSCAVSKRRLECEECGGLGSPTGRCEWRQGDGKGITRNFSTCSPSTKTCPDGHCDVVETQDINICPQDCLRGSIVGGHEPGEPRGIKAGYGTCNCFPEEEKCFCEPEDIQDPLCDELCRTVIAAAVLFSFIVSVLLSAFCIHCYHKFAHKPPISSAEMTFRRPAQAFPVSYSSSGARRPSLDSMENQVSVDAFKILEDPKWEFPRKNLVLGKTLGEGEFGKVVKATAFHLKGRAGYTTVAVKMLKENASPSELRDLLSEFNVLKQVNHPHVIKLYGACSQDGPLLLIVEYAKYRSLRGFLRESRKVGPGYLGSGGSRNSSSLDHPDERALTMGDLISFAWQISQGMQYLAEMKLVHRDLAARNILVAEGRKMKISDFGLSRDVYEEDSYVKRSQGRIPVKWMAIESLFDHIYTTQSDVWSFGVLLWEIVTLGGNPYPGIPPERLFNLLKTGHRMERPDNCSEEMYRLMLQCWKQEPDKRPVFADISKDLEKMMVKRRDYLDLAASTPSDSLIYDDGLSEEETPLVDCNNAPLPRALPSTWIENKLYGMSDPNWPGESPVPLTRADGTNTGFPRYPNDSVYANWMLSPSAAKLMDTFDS

As for `O=C(Cc1ccccn1)N1CCN(c2ccc(-c3cc(OCCF)cn4nc5[nH]ncc5c34)cn2)CC1` [Compound 19, 1-(4-(5-(6-(2-fluoroethoxy)-1H-pyrazolo[3′,4′:3,4]pyrazolo[1,5-a]pyridin-4-yl)pyridin-2-yl)piperazin-1-yl)-2-(pyridin-2-yl)ethan-1-one], at RET G810R, half-maximal inhibition (IC50) required 4.8 nM; the “inhibitory activity on RET G810R compared with cabozantinib and selpercatinib (LOXO-292)” value is “significantly better than that of cabozantinib and selpercatinib (LOXO-292)”. In addition, in the assay on TT Cell, the IC50 (as a rule, the midpoint of a concentration-inhibition curve) was determined as 31.2 nM and the “inhibitory activity on TT cells compared with cabozantinib” value was “significantly better than that of cabozantinib”.
On to `COc1ccc(CN2C3CC2CN(c2ccc(-c4cc(C#N)cn5nc6[nH]ncc6c45)cn2)C3)cn1` [Compound 5, 4-(6-(6-((6-methoxypyridin-3-yl)methyl)-3,6-diazabicyclo[3.3.1]heptan-3-yl)pyridin-3-yl)-1H-pyrazolo[3′,4′:3,4]pyrazolo[1,5-a]pyridine-6-carbonitrile], for which, at RET G810R, the IC50 was found to be 38.4 nM; the “inhibitory activity on RET G810R compared with cabozantinib and selpercatinib (LOXO-292)” value was “significantly better than that of cabozantinib and selpercatinib (LOXO-292)”. Moreover, in the assay with TT Cell, half-maximal inhibition (IC50) was put at 11.8 nM and the “inhibitory activity on TT cells compared with cabozantinib” value is on record as “significantly better than that of cabozantinib”.
Take `COc1ccc(CN2C3CC2CN(c2ccc(-c4cc(N)cn5nc6[nH]ncc6c45)cn2)C3)cn1` [Compound 6, 4-(6-(6-((6-methoxypyridin-3-yl)methyl)-3,6-diazabicyclo[3.3.1]heptan-3-yl)pyridin-3-yl)-1H-pyrazolo[3′,4′:3,4]pyrazolo[1,5-a]pyridin-6-amine]: in the assay with TT Cell, the IC50 was determined as 19.4 nM and the “inhibitory activity on TT cells compared with cabozantinib” value is “significantly better than that of cabozantinib”.
As for `COc1ccc(CN2C3CC2CN(c2ccc(-c4cc(OCC#N)cn5nc6[nH]ncc6c45)cn2)C3)cn1` [Compound 26, 2-((4-(6-(6-((6-methoxypyridin-3-yl)methyl)-3,6-diazabicyclo[3.3.1]heptan-3-yl)pyridin-3-yl)-1H-pyrazolo[3′,4′:3,4]pyrazolo[1,5-a]pyridin-6-yl)oxy)acetonitrile], on RET G810R, it took 2.1 nM to reach half-maximal inhibition (IC50); the “inhibitory activity on RET G810R compared with cabozantinib and selpercatinib (LOXO-292)” value is “significantly better than that of cabozantinib and selpercatinib (LOXO-292)”. In addition, in the assay on TT Cell, the IC50 worked out at 22.7 nM and the “inhibitory activity on TT cells compared with cabozantinib” value was “significantly better than that of cabozantinib”.
Turning to `COc1ccc(CN2C3CC2CN(c2ccc(-c4cc(OCc5ccccc5)cn5nc6[nH]ncc6c45)cn2)C3)cn1` [Compound 3, 6-(benzyloxy)-4-(6-(6-((6-methoxypyridin-3-yl)methyl)-3,6-diazabicyclo[3.3.1]heptan-3-yl)pyridin-3-yl)-1H-pyrazolo[3′,4′:3,4]pyrazolo[1,5-a]pyridine], at RET G810R, half-maximal inhibition (IC50) required 16.2 nM; the “inhibitory activity on RET G810R compared with cabozantinib and selpercatinib (LOXO-292)” value was “significantly better than that of cabozantinib and selpercatinib (LOXO-292)”. In the assay with TT Cell, the IC50 came to 32.8 nM and the “inhibitory activity on TT cells compared with cabozantinib” value is listed as “significantly better than that of cabozantinib”.
For the compound `COc1ccc(CN2C3CC2CN(c2ccc(-c4cc(OCC(F)(F)F)cn5nc6[nH]ncc6c45)cn2)C3)cn1` [Compound 30, 4-(6-(6-((6-methoxypyridin-3-yl)methyl)-3,6-diazabicyclo[3.3.1]heptan-3-yl)pyridin-3-yl)-6-(2,2,2-trifluoroethoxy)-1H-pyrazolo[3′,4′:3,4]pyrazolo[1,5-a]pyridine], on RET G810R, the IC50 stood at 5.9 nM; the “inhibitory activity on RET G810R compared with cabozantinib and selpercatinib (LOXO-292)” value is “significantly better than that of cabozantinib and selpercatinib (LOXO-292)”. Also, in the assay on TT Cell, the IC50 is 48.6 nM and the “inhibitory activity on TT cells compared with cabozantinib” value is on record as “significantly better than that of cabozantinib”.
In the case of `COc1ccc(CN2C3CC2CN(c2ccc(-c4cc(OCC5CC5)cn5nc6[nH]ncc6c45)cn2)C3)cn1` [Compound 37, 6-(cyclopropylmethoxy)-4-(6-(6-((6-methoxypyridin-3-yl)methyl)-3,6-diazabicyclo[3.3.1]heptan-3-yl)pyridin-3-yl)-1H-pyrazolo[3′,4′:3,4]pyrazolo[1,5-a]pyridine], in the assay on TT Cell, the IC50 amounted to 29.2 nM and the “inhibitory activity on TT cells compared with cabozantinib” value is “significantly better than that of cabozantinib”.
The compound `COc1ccc(CN2C3CC2CN(c2ccc(-c4cc(OC(F)F)cn5nc6[nH]ncc6c45)cn2)C3)cn1` [Compound 33, 6-(difluoromethoxy)-4-(6-(6-((6-methoxypyridin-3-yl)methyl)-3,6-diazabicyclo[3.3.1]heptan-3-yl)pyridin-3-yl)-1H-pyrazolo[3′,4′:3,4]pyrazolo[1,5-a]pyridine] yielded an IC50 in the assay with TT Cell of 350 nM.
Compound `CCOc1cc(-c2ccc(N3CC4CC(C3)N4Cc3ccc(OC)nc3)nc2)c2c3c(C)n[nH]c3nn2c1` [Compound 35] yielded an IC50 in the assay with TT Cell of 296 nM. The IC50 values of the last two compounds are within 1.5-fold of each other.
As for `COc1ccc(CN2C3CC2CN(c2ccc(-c4cc(OCCBr)cn5nc6[nH]ncc6c45)cn2)C3)cn1` [Compound 15, 6-(2-bromoethoxy)-4-(6-(6-((6-methoxypyridin-3-yl)methyl)-3,6-diazabicyclo[3.3.1]heptan-3-yl)pyridin-3-yl)-1H-pyrazolo[3′,4′:3,4]pyrazolo[1,5-a]pyridine], at RET G810R, the half-maximal inhibitory concentration (IC50) is 7.9 nM; the “inhibitory activity on RET G810R compared with cabozantinib and selpercatinib (LOXO-292)” value was “significantly better than that of cabozantinib and selpercatinib (LOXO-292)”.
Consider `CCCCOc1cc(-c2ccc(N3CC4CC(C3)N4Cc3ccc(OC)nc3)nc2)c2c3cn[nH]c3nn2c1` [Compound 11], for which, on RET G810R, the IC50 is 10.1 nM; the “inhibitory activity on RET G810R compared with cabozantinib and selpercatinib (LOXO-292)” value was “significantly better than that of cabozantinib and selpercatinib (LOXO-292)”. In the assay with TT Cell, the IC50 is 16.8 nM and the “inhibitory activity on TT cells compared with cabozantinib” value is “significantly better than that of cabozantinib”.
With `COc1ccc(CN2C3CC2CN(c2ccc(-c4cc(OCCOC5CC5)cn5nc6[nH]ncc6c45)cn2)C3)cn1` [Compound 34], in the assay with TT Cell, the IC50 turned out to be 81.8 nM and the “inhibitory activity on TT cells compared with cabozantinib” value is “significantly better than that of cabozantinib”.
Regarding `O=C([C@H](O)c1ccccc1)N1CCN(c2ccc(-c3cc(OCCF)cn4nc5[nH]ncc5c34)cn2)CC1` [Compound 20, (R)-1-(4-(5-(6-(2-fluoroethoxy)-1H-pyrazolo[3′,4′:3,4]pyrazolo[1,5-a]pyridin-4-yl)pyridin-2-yl)piperazin-1-yl)-2-hydroxy-2-phenylethan-1-one], at RET G810R, the IC50 worked out at 1.6 nM; the “inhibitory activity on RET G810R compared with cabozantinib and selpercatinib (LOXO-292)” value was “significantly better than that of cabozantinib and selpercatinib (LOXO-292)”. Further, in the assay with TT Cell, 27.8 nM corresponded to half-maximal inhibition (IC50) and the “inhibitory activity on TT cells compared with cabozantinib” value is reported as “significantly better than that of cabozantinib”.
Consider `CCN(CC)C(=O)N1CCN(c2ccc(-c3cc(OCCF)cn4nc5[nH]ncc5c34)cn2)CC1` [Compound 18, N,N-diethyl-4-(5-(6-(2-fluoroethoxy)-1H-pyrazolo[3′,4′:3,4]pyrazolo[1,5-a]pyridin-4-yl)pyridin-2-yl)piperazine-1-carboxamide], for which, on RET G810R, inhibition was half-maximal at 18.9 nM (IC50); the “inhibitory activity on RET G810R compared with cabozantinib and selpercatinib (LOXO-292)” value is “significantly better than that of cabozantinib and selpercatinib (LOXO-292)”. Moreover, in the assay on TT Cell, the IC50 was found to be 78.2 nM and the “inhibitory activity on TT cells compared with cabozantinib” value is “significantly better than that of cabozantinib”.
As for `COc1ccc(CN2C3CC2CN(c2ccc(-c4cc(OCCOCC5CC5)cn5nc6[nH]ncc6c45)cn2)C3)cn1` [Compound 28, 6-(2-(cyclopropylmethoxy)ethoxy)-4-(6-(6-((6-methoxypyridin-3-yl)methyl)-3,6-diazabicyclo[3.3.1]heptan-3-yl)pyridin-3-yl)-1H-pyrazolo[3′,4′:3,4]pyrazolo[1,5-a]pyridine], in the assay on TT Cell, the IC50 worked out at 64.3 nM and the “inhibitory activity on TT cells compared with cabozantinib” value was “significantly better than that of cabozantinib”.
As to `COc1cc2nccc(Oc3ccc(NC(=O)C4(C(=O)Nc5ccc(F)cc5)CC4)cc3)c2cc1OC` [Cabozantinib, reference compound], in the assay on TT Cell, the IC50 is 143 nM.
Take `COc1ccc(CN2C3CC2CN(c2ccc(-c4cc(OCCCl)cn5nc6[nH]ncc6c45)cn2)C3)cn1` [Compound 14, 6-(2-chloroethoxy)-4-(6-(6-((6-methoxypyridin-3-yl)methyl)-3,6-diazabicyclo[3.3.1]heptan-3-yl)pyridin-3-yl)-1H-pyrazolo[3′,4′:3,4]pyrazolo[1,5-a]pyridine]: at RET G810R, the IC50 amounted to 2.2 nM; the “inhibitory activity on RET G810R compared with cabozantinib and selpercatinib (LOXO-292)” value is “significantly better than that of cabozantinib and selpercatinib (LOXO-292)”.
For `COc1ccc(CN2C3CC2CN(c2ccc(-c4cc(Br)cn5nc6[nH]ncc6c45)cn2)C3)cn1` [Compound 2], in the assay on TT Cell, the IC50 was determined as 42.2 nM and the “inhibitory activity on TT cells compared with cabozantinib” value is “significantly better than that of cabozantinib”.
As to `COc1ccc(CN2C3CC2CN(c2ccc(-c4cc(OC[C@@H]5CNCCO5)cn5nc6[nH]ncc6c45)cn2)C3)cn1` [Compound 17], half-maximal inhibition in the assay on TT Cell (IC50) required 11.3 nM.
With `COc1ccc(CN2C3CC2CN(c2ccc(-c4cc(OC(C)C)cn5nc6[nH]ncc6c45)cn2)C3)cn1` [Compound 29], in the assay on TT Cell, the IC50 was found to be 60.8 nM and the “inhibitory activity on TT cells compared with cabozantinib” value is reported as “significantly better than that of cabozantinib”.
Regarding `COc1ccc(CN2C3CC2CN(c2ccc(-c4cc(OCC(C)(C)O)cn5nc6[nH]ncc6c45)cn2)C3)cn1` [Compound 8, 1-((4-(6-(6-((6-methoxypyridin-3-yl)methyl)-3,6-diazabicyclo[3.3.1]heptan-3-yl)pyridin-3-yl)-1H-pyrazolo[3′,4′:3,4]pyrazolo[1,5-a]pyridin-6-yl)oxy)-2-methylpropan-2-ol], in the assay with TT Cell, the IC50 was determined as 14.4 nM and the “inhibitory activity on TT cells compared with cabozantinib” value was “significantly better than that of cabozantinib”.

Source of the values: patent US12338253B2, “Nitrogen-containing polycyclic fused ring compound, pharmaceutical composition thereof, preparation method therefor and use thereof” (APPLIED PHARMACEUTICAL SCIENCE, INC., priority 2019, dated 2025).
